Data reported in patent US7585826B2, “Compositions counteracting pesticides and malodorants” (priority 2007, dated 2009).

Assays:
[1] = Decomposition rate of 17 pesticides mixed with the composition prepared in Example 1 (HPLC), against tap water or 10% brine controls; assay type: physicochemical; conditions: 10 ppm pesticide, composition of Example 1, 5 min; among seventeen pesticides
Method: The above-prepared composition was tested to decompose 17 pesticides, i.e., Diazinon, Terbufos, Acephate, Glyphosate, Phosmet, Mevinphos, Benomyl, Metalaxyl, Pyrnetrozine, Methomyl, Fenobucard, Carbendazim, Pencycuron, Hexaconazole, Thiophanate-methyl, Cartap, and Thiabendazole. The decomposition rates were measured as follows:
Each pesticide was dissolved in tap water at a concentration of 10 ppm. 10 mL pesticide solution was mixed with 10 mL of the composition prepared in Example 1 for 5 min. 10 mL pesticide solution was also mixed with 10 mL tap water or 10 mL 10% brine solution to prepare control solution. The pesticide concentration of each tested reaction solution was measured by high performance liquid chromatography.

[2] = Time-course decomposition of pesticides reacted with the composition prepared in Example 1 (HPLC); assay type: physicochemical; conditions: 7.5 mL of 10 ppm pesticide + 2.5 mL composition of Example 1; after 5.0 min reaction time
Method: 7.5 mL of a pesticide solution, containing 10 ppm Terbufos, Diazinon, Hexaconazole, or Fenobucard, was allowed to react with 2.5 mL of the composition prepared in Example 1 for 1.0 min, 3.0 min, and 5.0 min, respectively. HPLC was used to determine the concentrations of the pesticide.

SMILES | decomposition rate compared with the other pesticides tested [1] | pesticide decomposed [2] [%]
COP(=O)(NC(C)=O)SC (stereo not shown) [Acephate] | higher rates than the others | –
CCOP(=S)(OCC)Oc1cc(C)nc(C(C)C)n1 [Diazinon] | – | 87
CCC(C)c1ccccc1OC(=O)NC (stereo not shown) [Fenobucard] | – | 76
CCCCC(O)(Cn1cncn1)c1ccc(Cl)cc1Cl (stereo not shown) [Hexaconazole] | higher rates than the others | 85
CCOP(=S)(OCC)SCSC(C)(C)C [Terbufos] | higher rates than the others | 91
